The test system of test [1] is H3K9me2 (H3 di methyl K9). The test can be described thus: H3K9me2 western blot in Prader Willi Syndrome patient fibroblast cell lines. It is filed as cell-based, human. The settings on record: PWS patient fibroblast cell lines GM21889 and GM21890; 0.25 μM, 1 μM, 5 μM; 7 days; western blot densitometry; FIG. 1. As to the method: (§1) Fibroblast cell lines were obtained from Coriell Institute (GM21889 and GM21890). Cells were plated in 6 well plates at 0.13 or 0.26 e6 cells per well. Cells were treated for 7 days with 0, 0.25 μM, 1 μM, or 5 μM Compound No. 205 or 4 μM UNC0638 (positive control) with reseeding into 100 mm dishes and retreatment at day 4. On day 7 cells were lysed in 1X RIPA buffer (Millipore, #20-188) with 0.1% SDS and Protease Inhibitor Cocktail tablet (Roche, #04693159001), and sonicated on ice before being spun at 4° C. Clarified supernatant was assayed for protein concentration by BCA (Pierce, #23225). 25 μg of lysate was used for western blots. Antibodies used for Western blotting include H3 (4499; Cell Signaling) at 1:1000, H3K9me2 (ab1220; Abcam) at 1:1000, SNRPN (PA 1775; BosterBio) at 1:1000, and β-actin (ab8224; Abcam) at 1:2500. Imaging was performed using a Licor Odyssey, and changes in the target band were quantified by densitometry. Ratios between H3K9me2 and H3 were calculated and compound treated samples were normalized to controls (DMSO). Increases in SNRPN protein expression was observed upon increasing concentrations of Compound No. 205. See, e.g., FIGS. 1 and 2.

Another test concerns SNRPN protein. Kind of test: SNRPN protein induction (western blot) in Prader Willi Syndrome patient fibroblast cell lines. It is filed as cell-based, human. The settings on record: PWS patient fibroblast cell lines GM21889 and GM21890, increasing concentrations 0.25 μM, 1 μM, 5 μM, 7 days, FIG. 2. On the procedure:
as §1

For the molecule `CNc1cc(C)nc(Nc2ccc(OC)c(OCCCN3CCCC3)c2)n1` [Compound No. 205], the “H3 di methyl K9 (ratio H3K9me2 to H3, normalized to DMSO control)” value in test [1] is given as “decrease”. Moreover, the SNRPN protein expression entry with SNRPN protein is recorded as “Increases”.

Source of the values: patent US20200113901A1, “METHODS OF USING EHMT2 INHIBITORS” (Epizyme, Inc., priority 2017, published 2020).
